According to ChEMBL document CHEMBL1128835, “The antitumor activity of novel pyrazoloquinoline derivatives” (Bioorg Med Chem Lett, 1995):
pIC50: −log10 of the molar value.

Key:
Mus musculus [1] = experiment: In vivo antitumor activity was measured as the maximum dose tolerated by murine when administered intravenously; type: functional
DNA topoisomerase II = DNA topoisomerase II (Homo sapiens, UniProt P11388+Q02880); experiment: Compound was tested for topoisomerase II inhibition in purified HeLa cells by SDS/K+ precipitation method; type: cell-based
Mus musculus [2] = species on record: Mus musculus; experiment: Tested for tumor growth inhibition in mice; type: functional
P388 = experiment: In vitro cytotoxicity was evaluated following 1 hour transient exposure of P388 mouse leukemia cells to the compound; type: functional, cell-based; details: P388, 1 h
Mus musculus [3] = experiment: In vivo antitumor activity was measured as the maximum dose tolerated by murine when administered subcutaneously; type: functional

| Structure (SMILES) | MTD (Mus musculus [1]) | EC50 (DNA topoisomerase II) | T/C (Mus musculus [2]) | pIC50 (P388) | MTD (Mus musculus [3]) |
| --- | --- | --- | --- | --- | --- |
| Cc1cc(-c2c(F)cc3c4nn(C5CCN(C)CC5)c(=O)c-4cn(C4CC4)c3c2F)cc(C)n1 | 128 mg/kg | 3200 nM | 24% | 7.03 | – |
| CC(=O)N[C@H]1CC[C@@H](n2nc3c4cc(F)c(-c5cc(C)nc(C)c5)c(F)c4n(C4CC4)cc-3c2=O)CC1 | – | 7400 nM | – | 5.89 | – |
| Cc1cc(-c2c(F)cc3c4nn(CCN(C)C)c(=O)c-4cn(C4CC4)c3c2F)cc(C)n1 | 34 mg/kg | 2600 nM | 8% | 6.59 | – |
| Cc1cc(-c2c(F)cc3c4nn(C5CCCCC5)c(=O)c-4cn(C4CC4)c3c2F)cc(C)n1 | 140 mg/kg | 900 nM | 18% | 6.17 | – |
| Cc1cc(-c2c(F)cc3c4nn([C@H]5CC[C@H](N(C)C)CC5)c(=O)c-4cn(C4CC4)c3c2F)cc(C)n1 | 390 mg/kg | 4400 nM | 2% | 6.59 | – |
| Cc1cc(-c2c(F)cc3c4n[nH]c(=O)c-4cn(C4CC4)c3c2F)cc(C)n1 | – | 11000 nM | >100% | 5.10 | 2500 mg/kg |
| Cc1cc(-c2c(F)cc3c4nn(C5CCC(C)CC5)c(=O)c-4cn(C4CC4)c3c2F)cc(C)n1 (centres undefined) | – | 3100 nM | – | 5.85 | – |
| Cc1cc(-c2c(F)cc3c4nn(CCCN(C)C)c(=O)c-4cn(C4CC4)c3c2F)cc(C)n1 | 64 mg/kg | 1700 nM | 35% | 6.80 | – |
| Cc1cc(-c2c(F)cc3c4nn([C@H]5CC[C@@H](N)CC5)c(=O)c-4cn(C4CC4)c3c2F)cc(C)n1 | 110 mg/kg | 500 nM | 21% | 6.36 | – |
| Cc1cc(-c2c(F)cc3c4nn(C)c(=O)c-4cn(C4CC4)c3c2F)cc(C)n1 | – | 5900 nM | – | 5.51 | – |
| Cc1cc(-c2c(F)cc3c4nn(CCO)c(=O)c-4cn(C4CC4)c3c2F)cc(C)n1 | – | 6400 nM | – | 5.70 | – |
| CCOC(=O)Cn1nc2c3cc(F)c(-c4cc(C)nc(C)c4)c(F)c3n(C3CC3)cc-2c1=O | – | 6100 nM | – | 5.29 | – |
| Cc1cc(-c2c(F)cc3c4nn(CCNCCO)c(=O)c-4cn(C4CC4)c3c2F)cc(C)n1 | 1410 mg/kg | 3300 nM | 42% | 5.89 | – |
| Cc1cc(-c2c(F)cc3c4nn(CC(=O)O)c(=O)c-4cn(C4CC4)c3c2F)cc(C)n1 | – | 10000 nM | – | < 3.70 | – |
| Cc1cc(-c2c(F)cc3c4nn(-c5ccccc5)c(=O)c-4cn(C4CC4)c3c2F)cc(C)n1 | – | – | >100% | 5.74 | 635 mg/kg |
| Cc1cc(-c2c(F)cc3c4nn([C@H]5CC[C@@H](N(C)C)CC5)c(=O)c-4cn(C4CC4)c3c2F)cc(C)n1 | 63 mg/kg | 1700 nM | 5% | 7.17 | – |
| CC(=O)N[C@H]1CC[C@H](n2nc3c4cc(F)c(-c5cc(C)nc(C)c5)c(F)c4n(C4CC4)cc-3c2=O)CC1 | – | 9800 nM | – | 5.92 | – |
| Cc1cc(-c2c(F)cc3c(=O)ccn(C4CC4)c3c2F)cc(C)n1 | – | – | >100% | 4.82 | 1950 mg/kg |
| Cc1cc(-c2c(F)cc3c4nn(C5CCOCC5)c(=O)c-4cn(C4CC4)c3c2F)cc(C)n1 | – | 1700 nM | – | 6.54 | – |
| Cc1cc(-c2c(F)cc3c4nn([C@H]5CC[C@H](N)CC5)c(=O)c-4cn(C4CC4)c3c2F)cc(C)n1 | 550 mg/kg | 4200 nM | 42% | 5.82 | – |
| COc1cc(NS(C)(=O)=O)ccc1Nc1c2ccccc2nc2ccccc12 [AMSACRINE] | 48 mg/kg | – | 0% | 6.82 | – |
| COc1cc([C@@H]2c3cc4c(cc3[C@@H](O[C@@H]3O[C@@H]5CO[C@@H](C)O[C@H]5[C@H](O)[C@H]3O)[C@H]3COC(=O)[C@H]23)OCO4)cc(OC)c1O [ETOPOSIDE] | 96 mg/kg | – | 3% | – | – |
| Cc1cc(-c2c(F)cc3c(=O)c(C(=O)O)cn(C4CC4)c3c2F)cc(C)n1 [WIN-57294] | – | – | 31% | – | 600 mg/kg |
